These are literature values, as cited in patent US9061077B2 (Emory University, priority 2008, dated 2015).

For data set [1] the following is noted: eight human volunteers, single ingested dose of 10 mg; cited from earlier work.
For data set [2] the following is noted: cited from earlier work.

Regarding `O=C(O)CN(CC(=O)O)CC(=O)O` [NTA, nitrilotriacetic acid], in data set [1], the “Adverse effects (physical examination, blood chemistry, urinalysis)” value is on record as “no evidence of adverse effects”. Moreover, the “Acceptable daily intake in drinking water (Health Canada)” value in data set [2] (based on two-year rat studies, nephrotoxic no-observed-adverse-effect level) is 10 μg/kg bw per day. Besides, the “Dose inducing urinary tract tumors” value in data set [2] (rats and mice, two years) is given as “about 840 mg/kg bw per day”.
